Test results reported in publication PMC2944077, “Placental Transfer of Conjugated Bisphenol A and Subsequent Reactivation in the Rat Fetus” (Environmental Health Perspectives, 2010).

Assays:
[1] = Uterine perfusion of pregnant rats with glucuronide substrate; distribution in maternal-placental-fetal unit; type: in vivo, rat; details: for Amount of substrate (glucuronide) detected in perfusate (maternal side): 2 μM substrate 20 min (120 nmol total) then 70 min without substrate
From the text: Additional details of the surgical procedure are available in the Supplemental Material (doi:10.1289/ehp.0901575). In this perfusion system, the perfusate pumped into the abdominal aorta is circulated through one uterine artery– placenta–fetus–uterine vein unit and drips from the drain tube inserted in the caudal vein. After the perfusion, dams and fetuses were euthanized by incision of the caudal vena cava under anesthesia and tissues were collected.
We used modified Krebs-Ringer’s buffer (mKRB; 126 mM NaCl, 3 mM KCl, 1.2 mM KH2PO4, 1.3 mM MgSO4, 2.4 mM CaCl2, 10 mM glucose, 26 mM NaHCO3, 2.5% dextran from Leuconostoc mesenteroides, and 3% Dextran 70) as the perfusate. The perfusate was pumped at a constant rate of 3 mL/min. First, we perfused four animals in a preliminary group with 10 μM BPA-GA for 20 min to determine whether BPA-GA is transferred into the fetus across the placenta. In this group, we performed a preliminary perfusion with mKRB for 5 min to wash away blood, followed by 20 min inflow of mKRB containing 10 μM BPA-GA. After the perfusion, the fetus and amniotic fluid were collected.
To elucidate the kinetics of perfused BPA-GA, we used another group of four animals to compare the amount of BPA-GA in maternal veins with that in fetal tissue. After preliminary perfusion with mKRB for 5 min, pregnant rats were perfused with mKRB containing 2 μM BPA-GA for 20 min. Then, mKRB without BPA-GA was perfused for 70 min (a total of 90 min). From the beginning of the BPA-GA perfusion, the perfusate that drained from the caudal vena cava was collected from each animal at 5-min intervals for 90 min. At the end of perfusate collection, the fetus, amnion, amniotic fluid, uterus, and placenta were collected. We also performed a control study using 1-naphthol-glucuronide (1-NA-GA; Nacalai Tesque Inc., Kyoto, Japan) as the substrate. Four pregnant rats were used in each perfusion group. […]
Perfusates collected from the caudal vena cava were collected after uterine perfusion and prepared for HPLC and LC/TOF-MS analysis. Each perfusate sample was mixed with a 4-fold volume of acetonitrile and centrifuged at 13,000 rpm for 5 min at 4°C; each supernatant was then analyzed by HPLC.
To prepare tissues for HPLC and LC/TOF-MS analysis, we first added each sample to 0.3 mL methanol; the sample was homogenized and then sonicated for 5 min. The products were centrifuged at 13,000 rpm for 5 min at 4°C, and the supernatants were concentrated by solid-phase extraction using an Oasis HLB Plus cartridge (Waters Corp., Milford, MA, USA). The extracts were then analyzed by HPLC.
We used an HPLC system (Tosoh Corp., Tokyo, Japan) that consisted of a dual pump (DP-8020), a fluorescent photometer (FS-8020), and a column oven (CO-8020). Samples were separated at 40°C using a reverse-phase column (Unison UK-C18; Imtakt Corp., Kyoto, Japan) at a flow rate of 1.0 mL/min under a linear gradient of solution A (methanol/water = 24/76 vol/vol with 10 mM ammonium acetate) and solution B (methanol) for 20 min. BPA-GA was detected at excitation/emission of 275/308 nm and 1-NA-GA was detected at excitation/emission of 283/336 nm. The results were recorded using LC-8020 integration software (Tosoh Corp.); the elution peaks of BPA and BPA-GA were noted and the concentrations compared with the standards.
LC/TOF-MS was performed using the HPLC system described above and LCT premier XE (Waters Corp.). The flow rate of HPLC was 0.3 mL/min, and BPA-GA was monitored at m/z 403–404 by TOF-MS. In the present study, the limits of detection of BPA and BPA-GA in LC/TOF-MS were both 20 pmol/mL (data not shown).

UGT [2] = assay: UGT enzyme analysis using hepatic microsomes; type: in vitro ADME, rat
From the text: We examined UGT enzymatic activity using hepatic microsomes. We prepared the microsomes from rat liver and performed UGT enzyme analysis as described previously by [Daidoji et al (2006)]. See the Supplemental Material (doi:10.1289/ehp.0901575) for details.
Figure 6 Metabolism of BPA-GA in the fetus. Abbreviations: H, fetal heart; L, fetal liver; ML, maternal liver; P, placenta. (A) Time course showing concentration of deconjugated BPA (mean ± SE) in the extract of cultured fetal liver and heart cells (see “Materials and Methods” for details; n = 5). (B) Expression of β-Gase in the fetal liver and heart on GD18.5 by RT-PCR. (C) Expression of UGT isoforms in ML, P, L, and […] determined by RT-PCR. […] Values shown are the concentration (mean ± SE) of glucuronide conjugates in microsome protein (nmol/μg) after 30-min reaction time (n = 5).

CD-1 mice = tested on: CD-1 mice; design: method as in Timms et al. 2005; details: 10 μg/kg BPA/day; ref Timms et al. 2005; cited from earlier work
[3] = design: method as in Krishnan et al. 1993; Nagel et al. 1997; details: in vivo and in vitro; ref Krishnan et al. 1993; Nagel et al. 1997; cited from earlier work
UGT [4] = details: GD19.0; ref Matsumoto et al. 2002; cited from earlier work
[5] = oral 10 mg/kg BPA to GD16.0 rat mothers; ref Domoradzki et al. (2003); cited from earlier work
fetal heart cells = assay: Incubation of fetal primary cell cultures with BPA-GA (deconjugation); type: in vitro ADME, rat; details: 25 μM BPA-GA, 37°C, 10-120 min, GD18.5
Experimental: (§1) Fetal liver and heart tissues, collected on GD18.5, were washed twice with cold phosphate-buffered saline (PBS). Tissues for two fetuses were combined in one tube and then minced in cold PBS and centrifuged for 5 min at 100 × g at 4°C. After removing the supernatant, the pellets were resuspended in 5 mL William’s medium (Sigma-Aldrich, Inc., St. Louis, MO, USA) containing collagenase (350 U; Wako Pure Chemical Industries, Ltd., Osaka, Japan) and DNase I (375 U; Roche Diagnostics, Basel, Switzerland) and incubated for 30 min at 37°C. After the incubation, samples were centrifuged for 5 min at 100 × g at 4°C, and the supernatants were removed. The remaining cells, which had been isolated from two fetuses, were resuspended in 200 μL William’s medium with or without 25 μM BPA-GA and incubated at 37°C for 10, 30, 60, or 120 min. At each time point, cells and medium were pooled and extracts were prepared for HPLC as described above, by adding the same volume of methanol. All experiments were repeated five times. Values express the mean ± SE.

fetal liver cells = assay: as above; type: in vitro ADME, rat; details: 25 μM BPA-GA, 37°C, 10-120 min, GD18.5
Experimental: as §1

[6] = tested on: placental trophoblast primary cell culture; assay: Deconjugation of BPA-GA in placental trophoblast primary cell culture; type: in vitro ADME, rat; details: data not shown
Experimental: After co-incubation with BPA-GA, we detected deconjugated BPA in fetal liver and to a small degree in fetal heart (Figure 6A). We observed β-Gase expression in both tissues (Figure 6B). […] The difference in deconjugation rates among tissues in the present study may reflect uptake into cells via transporters rather than through β-Gase expression. Another possibility is that BPA-GA is deconjugated in the placenta and then resultant BPA is transferred into the fetus by passive diffusion. Therefore, we also examined deconjugation of BPA-GA in placental trophoblast primary cell culture. […] The possibility of transfer of placental deconjugated BPA could not be excluded completely in this experiment. Further work is required to examine the tissue-specific deconjugation of BPA-GA and the possibility of BPA transfer.

[7] = design: method as in Matthews et al. 2001; details: ref Matthews et al. 2001; cited from earlier work
[8] = 2 μM substrate 20 min then 70 min without substrate, GD18.5, mean ± SD, n = 4

| SMILES | Amount of substrate (glucuronide) detected in perfusate (maternal side) ([1]; GD18.5, mean ± SD, n = 4) | Fetal UGT activity toward BPA relative to nonpregnant adult rats (UGT [2]; late pregnancy, in theory, from 20% of maternal and 70% pregnant/nonpregnant) | UGT activities in fetal liver microsomes compared with those in the mother (UGT [2]; liver microsomes, GD18.5) | Fetal UGT activity toward substrate relative to maternal microsomes (UGT [2]; liver microsomes, GD18.5, 30-min reaction) | Effect of maternal exposure on prostate and urethra in male fetuses (CD-1 mice) | Estrogenic activity [3] | UGT activity toward BPA in pregnant rats relative to nonpregnant adult rats (UGT [4]) | Concentration of BPA-GA in the fetus compared with that in maternal plasma [5] | Share of the total amount of BPA-GA detected in the fetus ([1]; 2 μM BPA-GA 20 min, total perfusion 90 min) | BPA-GA in the collected perfusate after 70 min ([1]; 2 μM BPA-GA 20 min then perfusion without BPA-GA, n = 4) | Amount of deconjugated substrate (BPA or 1NA) detected in amniotic fluid [1, 8] | Amount of deconjugated substrate (BPA or 1NA) detected in fetus [1, 8] | Amount of substrate (glucuronide) detected in fetus [1, 8] | Deconjugated BPA in the fetus and amniotic fluid after preliminary perfusion ([1]; 10 μM BPA-GA, 20-min inflow, HPLC) | BPA-GA in the fetus and amniotic fluid after preliminary perfusion ([1]; 10 μM BPA-GA, 20-min inflow, HPLC, confirmed by LC/TOF-MS) | Deconjugation of BPA-GA to BPA in fetal heart cells (fetal heart cells) | Deconjugation of BPA-GA to BPA in fetal liver cells (fetal liver cells) | Deconjugation of BPA-GA in trophoblast cells [6] | Biological activity of metabolite [7] |
| --- | --- | --- | --- | --- | --- | --- | --- | --- | --- | --- | --- | --- | --- | --- | --- | --- | --- | --- | --- |
| O=C(O)[C@H]1O[C@@H](Oc2cccc3ccccc23)[C@H](O)[C@@H](O)[C@@H]1O [1-NA-GA, 1-naphthol-glucuronide, reference compound] | 111.77 ± 2.58 nmol |  |  |  |  |  |  |  |  |  |  |  |  |  |  |  |  |  |  |
| CC(C)(c1ccc(O)cc1)c1ccc(O)cc1 [BPA, Bisphenol A] |  | < 15% | quite low | about 20% | induces abnormal development of the prostate and urethra | weak estrogenic activity | about 70% | approximately 0.1% |  |  |  |  |  |  |  |  |  |  |  |
| CC(C)(c1ccc(O)cc1)c1ccc(O[C@@H]2O[C@H](C(=O)O)[C@@H](O)[C@H](O)[C@H]2O)cc1 [BPA-GA, BPA-glucuronide] | 113.10 ± 6.92 nmol |  |  |  |  |  |  |  | about 0.09% | barely detected | 31.35 ± 4.52 pmol | 6.45 ± 1.45 pmol | 109.26 ± 36.75 pmol | detected | detected | to a much smaller degree | in a time-dependent manner | did not observe deconjugation | biologically inactive |
